Common to all, as to assay: NCI tumour cell line growth inhibition, 48 h
For assay [1], the system named is BT-549.
Assay [2] relates to SNB-19.
Assay [3] deals with HOP-92.
Assay [4] relates to OVCAR-4.
Assay [5] concerns SF-539.
For assay [6], the system named is M14.
Assay [7] deals with PC-3.
The subject of assay [8] is ACHN.
The subject of assay [9] is MDA-MB-435.
For assay [10], the system named is MOLT-4.
For assay [11], the system named is SF-295.
Assay [12] deals with U-251.
In assay [13] the test system is MDA-MB-231.
Assay [14] concerns NCI-H522.
The subject of assay [15] is KM12.
Assay [16] has as its system NCI-H460.
Assay [17] deals with OVCAR-8.
In assay [18] the test system is RPMI-8226.
The subject of assay [19] is K562.

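1) Cells in 96-well plates. 2) Compound, 48 h, 5 concentrations. 3) Linear interpolation between surrounding doses. 4) Unreached endpoint = highest concentration. GI50 = concentration required for 50% inhibition of growth.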 Active and inactive are the calls of the source. No stated cut-off is given here; in the data, active = GI50 up to about 1.1 µM and inactive = higher. Peptide text beside a SMILES is read from it. * marks the point of attachment. Boc = CC(C)(C)OC(=O)* Bounds are passed on as bounds.

Regarding `Cc1oc2c(c1C)S(=O)(=O)C(C#N)C(c1ccccc1)N2` (stereo not drawn), the GI50 in [1] was 45.4 µM (inactive); in [2], > 100 µM (inactive); in [3], 64.6 µM (inactive); in assay [4], 29.6 µM (inactive); in assay [5], 39.6 µM (inactive); in assay [6], 40.4 µM (inactive). The GI50 in [7] is 66.5 µM (inactive); in [8], > 100 µM (inactive); in assay [9], 34.5 µM (inactive); in assay [10], 20.6 µM (inactive); in assay [11], 78.9 µM (inactive); in [12], 55 µM (inactive). Also, the GI50 was > 100 µM (inactive) in assay [13]; 16.9 µM (inactive) in assay [14]; 50.4 µM (inactive) in assay [15]; 41 µM (inactive) in assay [16]; 40.4 µM (inactive) in assay [17].
As for `CCOc1cc(CC[N+](C)(C)C)c2c(ccc3ccc(OC)c(OC)c32)c1OC`, the GI50 in assay [1] is 19.4 µM (inactive); in [2] it was > 100 µM (inactive); in assay [3], > 100 µM (inactive); in [4], > 10 µM (inactive); in assay [6] it was > 100 µM (inactive); in [7], > 100 µM (inactive). Besides, the GI50 is > 100 µM (inactive) in assay [8]; > 100 µM (inactive) in [9]; > 10 µM (inactive) in assay [10]; > 100 µM (inactive) in [11]; > 100 µM (inactive) in assay [12]; > 100 µM (inactive) in [13]. In addition, the GI50 in assay [14] was > 100 µM (inactive); in [18], 16.8 µM (inactive); in assay [17], > 100 µM (inactive).
For the molecule `CO/C(N)=C(C#N)/N=C/c1ccco1`, the GI50 in assay [1], in [3], in assay [4], in assay [6], in [7] and in assay [8] was > 100 µM (inactive) in each case. For the same molecule, the GI50 in [9], in assay [10], in assay [11], in assay [19], in assay [12] and in assay [13] was > 100 µM (inactive) throughout. Besides, the GI50 in assay [14], in assay [15], in assay [18] and in assay [17] was > 100 µM (inactive) in each case.
In the case of `Cc1cccc(N2C(=O)C3ON(C(C(N)=O)c4ccccc4)C(c4c5ccccc5c(Cl)c5ccccc45)C3C2=O)c1C` (stereo not drawn), the GI50 in assay [1] was 9.98 µM (inactive); in assay [2] it was 8.85 µM (inactive); in assay [3], 7.89 µM (inactive); in assay [4] it was 9.57 µM (inactive); in assay [5] it was 7.67 µM (inactive); in assay [6], 7.93 µM (inactive). For the same molecule, the GI50 in [7] was 7.78 µM (inactive); in assay [8], 9.16 µM (inactive); in assay [9], 6.31 µM (inactive); in assay [10] it was 1.89 µM (inactive); in assay [11], 9.66 µM (inactive); in assay [19], 12.7 µM (inactive). The GI50 in assay [12] is 8.02 µM (inactive); in assay [13], 9.42 µM (inactive); in [14], 10.5 µM (inactive); in assay [15], 1.85 µM (inactive); in assay [16], 9.71 µM (inactive); in assay [17] it was 9.84 µM (inactive).
On to `C[N+](C)(C)CCCSc1nc2ccccc2[nH]1`, for which the GI50 in assay [1], in [2], in [3], in assay [4], in assay [6] and in assay [7] was > 100 µM (inactive) each time. The GI50 in [8], in assay [9], in assay [10], in assay [11], in assay [19] and in [12] was > 100 µM (inactive) in each case. Further, the GI50 in assay [13], in assay [14], in assay [15], in [18], in assay [16] and in assay [17] was > 100 µM (inactive) each time.
As to `O=c1[nH]nc(Cc2ccccc2)n1/N=C/c1c(O)ccc2ccccc12`, the GI50 in assay [1] is 82.4 µM (inactive); in assay [2], 18.4 µM (inactive); in assay [3], 19.2 µM (inactive); in [4], 17.2 µM (inactive); in assay [5], 19.8 µM (inactive); in assay [7] it was 22.9 µM (inactive). Also, the GI50 in [8] is 22 µM (inactive); in assay [9] it was 29.2 µM (inactive); in [10], 26.4 µM (inactive); in [11], 26.9 µM (inactive); in [19], 23.2 µM (inactive); in assay [12], 18.2 µM (inactive). The GI50 was 19.7 µM (inactive) in [13]; 16.6 µM (inactive) in assay [14]; 19.7 µM (inactive) in assay [15]; 19.8 µM (inactive) in assay [18]; 21 µM (inactive) in assay [17].
Consider `Clc1ccc(OCc2nnc3sc(-c4ccc(-c5ccc(Cl)cc5Cl)o4)nn23)cc1`, for which the GI50 in [1] was > 100 µM (inactive); in assay [2], > 100 µM (inactive); in assay [3], 36.9 µM (inactive); in [4], > 100 µM (inactive); in assay [6] it was > 100 µM (inactive); in [7], > 100 µM (inactive). In addition, the GI50 in assay [8] is > 100 µM (inactive); in [9], > 100 µM (inactive); in [10], > 100 µM (inactive); in assay [11], 89.1 µM (inactive); in assay [19], > 100 µM (inactive); in assay [12], 84.3 µM (inactive). Besides, the GI50 in assay [13], in [14], in assay [15], in [18], in assay [16] and in [17] was > 100 µM (inactive) each time.
Regarding `COCN1C(=O)[C@@H]2C[C@@H](O)CN2C(=O)c2ccccc21`, the GI50 in assay [1], in assay [2], in assay [3], in [4], in assay [6] and in assay [7] was > 100 µM (inactive) throughout. For the same molecule, the GI50 in assay [8] was > 100 µM (inactive); in assay [9], > 100 µM (inactive); in assay [10], 61.7 µM (inactive); in assay [11] it was > 100 µM (inactive); in assay [19], > 100 µM (inactive); in [12], > 100 µM (inactive). Also, the GI50 in [13], in assay [14], in [15], in assay [18], in assay [16] and in [17] was > 100 µM (inactive) each time.
As to `Nc1ccc(S(=O)(=O)NCCS(=O)(=O)O)cc1`, the GI50 in [1], in assay [2], in [3], in [4], in assay [6] and in [7] was > 100 µM (inactive) throughout. The GI50 in [8], in assay [9], in assay [10], in assay [11], in assay [19] and in [12] was > 100 µM (inactive) in each case. Moreover, the GI50 in [13], in assay [14], in [15], in assay [16] and in assay [17] was > 100 µM (inactive) in each case.
For the molecule `COc1ccc2cc(CNCCCCCCCCNCc3ccc4cc(OC)ccc4c3)ccc2c1`, the GI50 was 6.67 µM (inactive) in assay [1]; 4.1 µM (inactive) in assay [2]; 5.32 µM (inactive) in assay [3]; 6.34 µM (inactive) in [4]; 1.86 µM (inactive) in assay [6]; 1.45 µM (inactive) in [7]. The GI50 is 5.94 µM (inactive) in assay [8]; 4.94 µM (inactive) in assay [9]; 2.77 µM (inactive) in assay [10]; 5.3 µM (inactive) in [11]; 0.975 µM (active) in [19]; 3.66 µM (inactive) in assay [12]. For the same molecule, the GI50 was 13.7 µM (inactive) in assay [13]; 4.37 µM (inactive) in assay [14]; 3.92 µM (inactive) in assay [15]; 1.48 µM (inactive) in assay [18]; 2.07 µM (inactive) in assay [16]; 6.61 µM (inactive) in assay [17].
Consider `CCOCC(NC(=O)C(CC(C)C)NC(=O)OC(C)(C)C)C(N)=O` (stereo not drawn) (Boc-Leu-Ser(Et)-NH2; configuration not given here), for which the GI50 in assay [1], in [2], in [3], in [4], in assay [5] and in assay [6] was > 100 µM (inactive) in each case. For the same molecule, the GI50 in assay [7] is > 100 µM (inactive); in assay [8], > 100 µM (inactive); in assay [9], > 100 µM (inactive); in [10], > 100 µM (inactive); in assay [11], > 100 µM (inactive); in assay [12], 1.46 µM (inactive). The GI50 in assay [13], in assay [14], in [15] and in assay [17] was > 100 µM (inactive) throughout.

Source of the values: ChEMBL document CHEMBL1201862, “PubChem BioAssay data set” (2004).
